Assay [1] concerns tumor-derived immunosuppressive T cells (T reg: CD4+, CD25+, Foxp3+); CD8 T cells. The assay is described as follows: Immunological stimulation test in mice receiving tumor treatment (T reg, CD8 T cells). It is filed as in vivo. The conditions noted are these: mice receiving tumor treatment. An excerpt:
We further studied the immunological stimulation property of Legutaxel. […] On the contrary, the index for tumor-derived immunosuppressive T cells in treatment group by Legutaxel decreased due to targeted chemotherapy (see panels in FIGS. 3A and 3B).

The test system of assay [2] is Human prostate cancer PC-3 cells / Panc-1 cells. Put plainly: Tumor treatment in nude mice (PC-3 cells purchased, Panc-1 cells injected; Examples 22, 32, 42). It is filed as in vivo. The note with it: nude mice, IV once weekly for four weeks, Paclitaxel 8 mg/kg. The procedure:
1) Human prostate cancer PC-3 cells were purchased from American type culture collection (ATCC) and identified according the specification provided by ATCC. Cells were cultivated in DMEM culture solution containing 10% fetal bovine serum at 37° C. and 5% CO2. The cells were passaged for every three days and cells within the 15th passage were used.
2) Production of tumor. 5×10^6Panc-1 cells were subcutaneously injected to the back of the nude mice. Mice were randomly grouped after the tumor reached at least 100 mm^3. Then treatment began and the day on which the treatment began was day 1.
The control group was administered by physiological saline. Drugs were administered once weekly for four weeks.
According to the clinical application of B1, B2, B3 and B4, drugs were intravenously injected (IV). […] The control group was administered by physiological saline. Drugs were administered once weekly for four weeks.

Another assay concerns 4T1 cells. The assay is described as follows: BALB/C mice model for tumor metastasis (4T1, lung metastases). The conditions noted are these: IV every three days for 4 times, Paclitaxel 4 mg/kg. The assay is classed as in vivo. How it is done:
1) 4T1 cells were purchased from American type culture collection (ATCC) and identified according the specification provided by ATCC. Cells were cultivated in DMEM culture solution containing 10% fetal bovine serum at 37° C. and 5% CO2. The cells were passaged for every three days and cells within the 15th passage were used.
2) Production of tumor metastasis. 10^6 […] were subcutaneously injected to the back of the BALB/C mice. Mice were randomly grouped after the tumor grew to about 1.5 cm. The subcutaneous tumor was removed by surgery and drug treatment began. Mice were killed after anesthesia on day 27. The whole lung was taken out and put into Bouin's solution for staining. The number of the tumor metastasized to lung was counted with anatomical microscope.
(§1) The control group was administered by physiological saline. Drugs were administered once for every three days for 4 times.
as §1
According to the clinical application of B1, B2, B3 and B4, drugs were intravenously injected (IV). […] The control group was administered by physiological saline. Drugs were administered once for every three days for 4 times.
According to the clinical application of D1, D2, D3 and D4, drugs were intravenously injected (IV). […] The control group was administered by physiological saline. Drugs were administered once for every three days for 4 times.

The next assay concerns tumor CD8+ T cells. The assay is classed as in vivo, C57 mice. The conditions noted are these: CD8 positive cells in CD45 positive cells of tumor. The procedure:
(§2) 4) Analysis on tumor CD8+ T cells. The tumor tissue was homogenated and individual cells in the tumor were filtered, separated and washed by buffer twice, then cultivated with the leucocyte common antigen CD45-PE and CD8-FITC marked antibodies for 1 hour at ambient temperature. The cells were washed by phosphate buffer containing 1% fetal bovine serum twice and then analyzed for the ratio of the T lymphocyte antigen (CD8) positive cells in the leucocyte common antigen (CD45) positive cells by flow cytometry.
as §2, with “CD45-PE and T-lymphocyte antigen CD8-FITC marked” for “CD45-PE and CD8-FITC marked”, “flow cytometry. Increasement of the ratio indicates increased T lymphocyte cells and thus the animal immunity against the tumor was improved.” for “flow cytometry.”
as §2, with “cytometry. Increasement of the ratio indicates increased T lymphocyte cells and thus the animal immunity against the tumor was improved.” for “cytometry.”

The subject of another assay is D121 lung tumor cells. It is filed as in vivo, C57 mice. The note with it: drugs weekly for 4 weeks. The procedure: 1) D121 lung tumor cells were purchased from ATCC. Cells were cultivated in DMEM culture solution containing 10% fetal bovine serum at 37° C. and 5% CO2. The cells were passaged for every three days and cells within the 15th passage were used.
2) Tumor immunization. 5×10^5 D121 lung cancer cells (purchased from ATCC) which were killed by irradiation were intraperitoneally injected to mice. The mice were injected for 3 times, once every two weeks. After immunization, mice were injected with tumor cells and the drugs were administered weekly for 4 weeks.
3) Production of tumor. At day 32, 10^6 live lung tumor cells were subcutaneously injected to the back of the C57 mice immunized by tumor. Treatment began when the tumor grew to 0.3-0.4 cm.
2) Tumor immunization. 5×10^5 D121 lung cancer cells (purchased from ATCC) which were killed by irradiation were intraperitoneally injected to mice. The mice were injected for 3 times, once every two weeks. After immunization, mice were injected with tumor cells and the drugs were administered weekly for 4 weeks. In table 16 below the immune group was immuned with D121 lung tumor cells and the group without dead D121 lung tumor cells was injected with physiological saline as controls.
3) Production of tumor. After immunization (4 weeks later), 10^6 live lung tumor cells were subcutaneously injected to the back of the C57 mice immunized by tumor. Treatment began when the tumor grew to 0.3-0.4 cm. Tumor size (mm^3) were noted and tumor inhibition rates were calculated.
2) Tumor immunization. 5×10^5 D121 lung cancer cells (purchased from ATCC) which were killed by irradiation were intraperitoneally injected to mice. The mice were injected for 3 times, once every two weeks. After immunization, mice were injected with tumor cells and the drugs were administered weekly for 4 weeks. In the table below the immune group was immuned with D121 lung tumor cells and the group without dead D121 lung tumor cells was injected with physiological saline as controls.
3) Production of tumor. At day 32, 10^6 live D121 lung tumor cells were subcutaneously injected to the back of the C57 mice immunized by tumor. Treatment began when the tumor grew to 0.3-0.4 cm.
1) D121 lung tumor cells were purposed from ATCC. Cells were cultivated in DMEM culture solution containing 10% fetal bovine serum at 37° C. and 5% CO2. The cells were passaged for every three days and cells within the 15th passage were used.

[3] abbreviates: Table 26, A1-A4 24 mg/kg, Day 10.
[4] abbreviates: 4T1, BALB/C mice, lung, day 27, S1′-S4′ 12 mg/kg.
The mark [5] stands for this setting: Table 28, BALB/C mice, 4T1, lung metastases day 27, A1-A4 12 mg/kg.
Setting [6] is: D121 immunized C57 mice, Day 18 (Example 23).

Where two headings read alike, the source gives them in different places.

For Paclitaxel [reference compound], the “Index for tumor-derived immunosuppressive T cells (T reg: CD4+, CD25+, Foxp3+)” value in assay [1] is “greatly increased”. Further, the “Size of tumor (mm^3) Day 10” value in assay [2] (setting [3]) was 123.04 ± 125.3 mm^3. Further, the “inhibitory rate on tumor Day 10” value in assay [2] (setting [3]) is given as 58.3%; in assay [2] (S1′-S4′ 24 mg/kg, Day 10), 7.5%. For the same substance, the “Size of tumor (mm^3) Day 24” value in assay [2] (Table 26, A1-A4 24 mg/kg) is given as 252.49 ± 248.5 mm^3; in assay [2] (S1′-S4′ 24 mg/kg) it was 249.54 ± 95.46 mm^3. The “inhibitory rate on tumor Day 24” value in assay [2] (Table 26, A1-A4 24 mg/kg) was determined as 33.7%; in assay [2] (S1′-S4′ 24 mg/kg), 27.9%. For the same substance, the results for the “Inhibitory rate on metastasis” value in the assay on 4T1 cells (setting [4]) and in the assay on 4T1 cells (setting [5]) were 5.9% and 6.8%, respectively. Moreover, the figures for the “Number of metastasized tumor” value in the assay on 4T1 cells (setting [4]) and in the assay with 4T1 cells (setting [5]) were 128 ± 25 and 137 ± 32, respectively. In addition, the “CD8: CD45 (%)” value in the assay on tumor CD8+ T cells (D121 immunized C57 mice (Example 23)) stood at 6.6%; with tumor CD8+ T cells (Table 27, flow cytometry, immunized C57 mice, D121) it was 5.7%. Besides, the “Size of tumor (mm^3) Day 18” value with D121 lung tumor cells (setting [6]) is reported as 1210.28 ± 375.46 mm^3. The “inhibitory rate on tumor % Day 18” value came to 23.1% in the assay on D121 lung tumor cells (setting [6]) and 20.47% with D121 lung tumor cells (Table 27, immunized C57 mice, D121 lung tumor, Day 18).

The record behind these values is US10682371B2, “Small molecule conjugates specifically activated in tumor microenvironment for targeting and use thereof” (priority 2014, dated 2020).
